Target: T1, mTAT (mouse tyrosine aminotransferase) (Mus musculus, UniProt Q8QZR1)
T1 sequence (Q8QZR1 41-442): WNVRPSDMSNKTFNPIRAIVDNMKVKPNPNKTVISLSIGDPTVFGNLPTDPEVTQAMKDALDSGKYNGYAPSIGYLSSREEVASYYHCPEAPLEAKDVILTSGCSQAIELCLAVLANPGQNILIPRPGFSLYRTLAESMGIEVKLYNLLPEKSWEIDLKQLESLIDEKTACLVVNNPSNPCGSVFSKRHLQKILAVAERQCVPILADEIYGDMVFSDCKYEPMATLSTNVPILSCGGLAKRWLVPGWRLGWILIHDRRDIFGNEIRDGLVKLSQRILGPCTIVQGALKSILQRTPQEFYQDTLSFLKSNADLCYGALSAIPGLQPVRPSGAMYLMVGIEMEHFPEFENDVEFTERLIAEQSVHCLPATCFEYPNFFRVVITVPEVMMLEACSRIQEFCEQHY
Assay: X-ray crystal structure, […] Å
Type: binding
Conditions: covalent; internal Schiff base with Lys280; pH 6.8

Cc1ncc(COP(=O)(O)O)c(C=O)c1O [PLP]
X-ray crystal structure, 2.9 Å: Residual electron density clearly revealed the presence of covalently bound PLP in the active center

Source: paper PMC3023147 (Protein & cell, 2010)
